Data from patent US20120029187A1, “HALOALKYLSULFONANILIDE DERIVATIVE” (Nissan Chemical Industries, Ltd., priority 2009, published 2012).

Columns and labels:
Assay type in all cases: in vivo
barnyardgrass [1] = assay: Test Example 1: herbicidal effects in preemergence treatment under submerged conditions; details: dose 2.52 g/a
Summary of the method: (§1)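 Weed seeds and 2.5-leaf rice seedlings shared each flooded cup of alluvial soil. Dosing, expressed as g per are, was by pouring water-diluted emulsifiable concentrate onto the surface on sowing day. Mortality was graded 0 to 5 after three weeks' growth.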

bulrush [2] = assay: as above; details: dose 2.52 g/a
Summary of the method: as §1

ducksalad [3] = assay: as above; details: dose 2.52 g/a
Summary of the method: as §1

transplanted rice = assay: Test Example 1: preemergence treatment under submerged conditions, effect on crop; details: dose 2.52 g/a
Summary of the method: as §1

barnyardgrass [4] = assay: Test Example 2: herbicidal effects during the vegetation period under submerged conditions; details: treatment during the vegetation period under submerged conditions; dose 2.52 g/a
Summary of the method: (§2)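 Barnyardgrass, bulrush and ducksalad were co-sown in alluvial soil flooded to 4 cm and grown in a greenhouse at 25 to 30° C. At the 1- or 2-leaf stage, water-diluted emulsifiable concentrates went onto the water surface at set doses (g/a). Herbicidal effect was scored three weeks later on a graded scale.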

bulrush [5] = assay: as above; details: treatment during the vegetation period under submerged conditions; dose 2.52 g/a
Summary of the method: as §2

ducksalad [6] = assay: as above; details: treatment during the vegetation period under submerged conditions; dose 2.52 g/a
Summary of the method: as §2

Italian ryegrass [7] = assay: Test Example 3: herbicidal effects in soil treatment; details: dose 3.2 g/a
Summary of the method: (§3)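 Seeds were sown in sterilized diluvial soil and covered with about 1.5 cm of soil. Compounds, formulated as emulsifiable concentrates and diluted with water, were sprayed evenly over the soil surface at set doses in g/a. Herbicidal effect was scored on a rating scale three weeks later.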

barnyardgrass [8] = assay: as above; details: dose 3.2 g/a
Summary of the method: as §3

common chickweed [9] = assay: as above; details: dose 3.2 g/a
Summary of the method: as §3

common lambsquater [10] = assay: as above; details: dose 3.2 g/a
Summary of the method: as §3

common ragweed [11] = assay: as above; details: dose 3.2 g/a
Summary of the method: as §3

giant foxtail [12] = assay: as above; details: dose 3.2 g/a
Summary of the method: as §3

large crabgrass [13] = assay: as above; details: dose 3.2 g/a
Summary of the method: as §3

posumbu knotweed [14] = assay: as above; details: dose 3.2 g/a
Summary of the method: as §3

redroot pigweed [15] = assay: as above; details: dose 3.2 g/a
Summary of the method: as §3

water foxtail [16] = assay: as above; details: dose 3.2 g/a
Summary of the method: as §3

wild oat [17] = assay: as above; details: dose 3.2 g/a
Summary of the method: as §3

Italian ryegrass [18] = assay: Test Example 4: herbicidal effect in foliage treatment; details: dose 3.2 g/a, three weeks after application
Summary of the method: (§4)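 Post-emergence foliar spray of water-diluted emulsifiable concentrate at predetermined doses (g per are), applied to plants 14 days after sowing in sterile diluvial soil (greenhouse, 25 to 30° C). Visual scale rating of effect taken 3 weeks later.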

barnyardgrass [19] = assay: as above; details: dose 3.2 g/a, three weeks after application
Summary of the method: as §4

beadstraw = assay: as above; details: dose 3.2 g/a, three weeks after application
Summary of the method: as §4

common chickweed [20] = assay: as above; details: dose 3.2 g/a, three weeks after application
Summary of the method: as §4

common lambsquater [21] = assay: as above; details: dose 3.2 g/a, three weeks after application
Summary of the method: as §4

common ragweed [22] = assay: as above; details: dose 3.2 g/a, three weeks after application
Summary of the method: as §4

giant foxtail [23] = assay: as above; details: dose 3.2 g/a, three weeks after application
Summary of the method: as §4

large crabgrass [24] = assay: as above; details: dose 3.2 g/a, three weeks after application
Summary of the method: as §4

posumbu knotweed [25] = assay: as above; details: dose 3.2 g/a, three weeks after application
Summary of the method: as §4

redroot pigweed [26] = assay: as above; details: dose 3.2 g/a, three weeks after application
Summary of the method: as §4

velvetleaf = assay: as above; details: dose 3.2 g/a, three weeks after application
Summary of the method: as §4

water foxtail [27] = assay: as above; details: dose 3.2 g/a, three weeks after application
Summary of the method: as §4

wild oat [28] = assay: as above; details: dose 3.2 g/a, three weeks after application
Summary of the method: as §4

| Structure (SMILES) | A: barnyardgrass, herbicidal effect (evaluation scale 0-5) (barnyardgrass [1]) | B: bulrush, herbicidal effect (evaluation scale 0-5) (bulrush [2]) | C: ducksalad, herbicidal effect (evaluation scale 0-5) (ducksalad [3]) | a: transplanted rice, effect on crop (evaluation scale 0-5) (transplanted rice) | A: barnyardgrass, herbicidal effect (evaluation scale 0-5) (barnyardgrass [4]) | B: bulrush, herbicidal effect (evaluation scale 0-5) (bulrush [5]) | C: ducksalad, herbicidal effect (evaluation scale 0-5) (ducksalad [6]) | H: Italian ryegrass, herbicidal effect (evaluation scale 0-5) (Italian ryegrass [7]) | A: barnyardgrass, herbicidal effect (evaluation scale 0-5) (barnyardgrass [8]) | N: common chickweed, herbicidal effect (evaluation scale 0-5) (common chickweed [9]) | L: common lambsquater, herbicidal effect (evaluation scale 0-5) (common lambsquater [10]) | J: common ragweed, herbicidal effect (evaluation scale 0-5) (common ragweed [11]) | E: giant foxtail, herbicidal effect (evaluation scale 0-5) (giant foxtail [12]) | D: large crabgrass, herbicidal effect (evaluation scale 0-5) (large crabgrass [13]) | M: posumbu knotweed, herbicidal effect (evaluation scale 0-5) (posumbu knotweed [14]) | K: redroot pigweed, herbicidal effect (evaluation scale 0-5) (redroot pigweed [15]) | G: water foxtail, herbicidal effect (evaluation scale 0-5) (water foxtail [16]) | F: wild oat, herbicidal effect (evaluation scale 0-5) (wild oat [17]) | H: Italian ryegrass, herbicidal effect (Italian ryegrass [18]) | A: barnyardgrass, herbicidal effect (barnyardgrass [19]) | other results |
| --- | --- | --- | --- | --- | --- | --- | --- | --- | --- | --- | --- | --- | --- | --- | --- | --- | --- | --- | --- | --- | --- |
| O=C1CC(c2ccccc2)OCN1Cc1ccccc1N(C(=O)OCCCl)S(=O)(=O)C(F)(F)F (centres unmarked) [II-12] | 5 (mortality of 90% or above (nearly complete death)) | 5 (mortality of 90% or above (nearly complete death)) | 5 (mortality of 90% or above (nearly complete death)) | 0 (mortality of less than 5% (almost ineffective)) | 4 (mortality of at least 70% and less than 90%) | 5 (mortality of 90% or above (nearly complete death)) | 5 (mortality of 90% or above (nearly complete death)) | 4 (mortality of at least 70% and less than 90%) | 4 (mortality of at least 70% and less than 90%) | 3 (mortality of at least 40% and less than 70%) | 0 (mortality of less than 5% (almost ineffective)) | 0 (mortality of less than 5% (almost ineffective)) | 5 (mortality of 90% or above (nearly complete death)) | 4 (mortality of at least 70% and less than 90%) | 0 (mortality of less than 5% (almost ineffective)) | 0 (mortality of less than 5% (almost ineffective)) | 5 (mortality of 90% or above (nearly complete death)) | 0 (mortality of less than 5% (almost ineffective)) | 0 (mortality of less than 5% (almost ineffective)) | 5 (mortality of 90% or above (nearly complete death)) | O: beadstraw, herbicidal effect (beadstraw): 4 (mortality of at least 70% and less than 90%); N: common chickweed, herbicidal effect (common chickweed [20]): 3 (mortality of at least 40% and less than 70%); L: common lambsquater, herbicidal effect (common lambsquater [21]): 0 (mortality of less than 5% (almost ineffective)); J: common ragweed, herbicidal effect (common ragweed [22]): 4 (mortality of at least 70% and less than 90%); E: giant foxtail, herbicidal effect (giant foxtail [23]): 3 (mortality of at least 40% and less than 70%); D: large crabgrass, herbicidal effect (large crabgrass [24]): 2 (mortality of at least 20% and less than 40%); M: posumbu knotweed, herbicidal effect (posumbu knotweed [25]): 1 (mortality of at least 5% and less than 20%); K: redroot pigweed, herbicidal effect (redroot pigweed [26]): 0 (mortality of less than 5% (almost ineffective)); I: velvetleaf, herbicidal effect (velvetleaf): 3 (mortality of at least 40% and less than 70%); G: water foxtail, herbicidal effect (water foxtail [27]): 4 (mortality of at least 70% and less than 90%); F: wild oat, herbicidal effect (wild oat [28]): 0 (mortality of less than 5% (almost ineffective)) |
| CC(C)(C)COC(=O)N(c1ccccc1CN1COC(C)(C)CC1=O)S(=O)(=O)C(F)(F)F [II-27] | 5 (mortality of 90% or above (nearly complete death)) | 5 (mortality of 90% or above (nearly complete death)) | 5 (mortality of 90% or above (nearly complete death)) | 0 (mortality of less than 5% (almost ineffective)) | 5 (mortality of 90% or above (nearly complete death)) | 5 (mortality of 90% or above (nearly complete death)) | 5 (mortality of 90% or above (nearly complete death)) | 3 (mortality of at least 40% and less than 70%) | 5 (mortality of 90% or above (nearly complete death)) | 4 (mortality of at least 70% and less than 90%) | 0 (mortality of less than 5% (almost ineffective)) | 4 (mortality of at least 70% and less than 90%) | 4 (mortality of at least 70% and less than 90%) | 5 (mortality of 90% or above (nearly complete death)) | 3 (mortality of at least 40% and less than 70%) | 0 (mortality of less than 5% (almost ineffective)) | 5 (mortality of 90% or above (nearly complete death)) | 0 (mortality of less than 5% (almost ineffective)) | 3 (mortality of at least 40% and less than 70%) | 5 (mortality of 90% or above (nearly complete death)) | O: beadstraw, herbicidal effect (beadstraw): 4 (mortality of at least 70% and less than 90%); N: common chickweed, herbicidal effect (common chickweed [20]): 3 (mortality of at least 40% and less than 70%); L: common lambsquater, herbicidal effect (common lambsquater [21]): 3 (mortality of at least 40% and less than 70%); J: common ragweed, herbicidal effect (common ragweed [22]): 4 (mortality of at least 70% and less than 90%); E: giant foxtail, herbicidal effect (giant foxtail [23]): 3 (mortality of at least 40% and less than 70%); D: large crabgrass, herbicidal effect (large crabgrass [24]): 4 (mortality of at least 70% and less than 90%); M: posumbu knotweed, herbicidal effect (posumbu knotweed [25]): 3 (mortality of at least 40% and less than 70%); K: redroot pigweed, herbicidal effect (redroot pigweed [26]): 0 (mortality of less than 5% (almost ineffective)); I: velvetleaf, herbicidal effect (velvetleaf): 5 (mortality of 90% or above (nearly complete death)); G: water foxtail, herbicidal effect (water foxtail [27]): 3 (mortality of at least 40% and less than 70%); F: wild oat, herbicidal effect (wild oat [28]): 0 (mortality of less than 5% (almost ineffective)) |
